Legend:
CD25 = assay: Binding of biotinylated IL-2 to CD25-Fc fusion protein on ELISA plates with or without peptide 3028; settings: CD25-Fc on protein G coated plates
From the text: Based on this observation, the effect of peptide 3028 on the binding of IL-2 to CD25 was studied. […] Amazingly, the binding of IL-2 to CD25 was enhanced by peptide 3028, indicating a three-part interaction between IL-2, CD25 and 3028.

PBMCs = assay: PHA-induced proliferation of PBMC in the presence of albumin peptides and/or dHSA; format: cell-based, human; settings: PBMCs from two healthy controls; two PHA concentrations
From the text: Venous blood was drawn from healthy volunteers or from cancer patients in glass vacuum tubes with acid dextrose citrate solution A as anti-coagulant (Vacutainer, Becton Dickinson, Franklin Lakes, N.J.). Erythrocytes were removed by sedimentation on 2% dextran T500 solution (Amersham Pharmacia Biotech AB, Uppsala, Sweden) in 0.9% NaCl (this step was omitted for cultures with PHA-stimulation-see below). […] For cell cultures with PHA-stimulation, PBMC were washed in Hank's Balanced Salt Solution (HBSS) with 10% autologous plasma instead of RPMI/2% HSA. […] The cell suspension was stained with Turk's solution and the number of lymphocytes and monocytes in the PBMC preparation were counted in a hemocytometer. PBMCs were suspended in RPMI/2% HSA and the cell concentration adjusted to 5×10^5 lymphocytes/ml.
100 μl of the cell suspension were seeded into round-bottomed microtiter plates (Corning, N.Y., USA) followed by 100 μl of culture medium consisting of RPMI 1640 (Flow Laboratories, Irvine, Scotland) supplemented with 200 IU/ml Penicillin, 200 μg/ml Streptomycin (Flow laboratories) and 20% heat inactivated autologous serum. Phytohemagglutinin (PHA-P, Sigma Chemical Co, St. Louis, Mo.) at a final concentration of 5 or 10 μg/ml was then added.
All culture conditions were set up in triplicate wells. […] Mean values of disintegrations per minute (dpm) of triplicates were used for the calculations.

[1] = tested on: natural killer (NK) cells; assay: Cytotoxic activity of natural killer (NK) cells against K562 (NKTEST, flow cytometry); format: cell-based, human; settings: four healthy donors; peptides 10 ug/ml; effector:target ratio 40:1
Description: Mononuclear cells were separated by standard Ficoll-paque Plus (Pharmacia AB, Sweden) density gradient centrifugation from heparinized blood obtained from healthy donors. NK cell cytotoxic activity of the mononuclear cells was then tested using a commercial kit (NKTEST, Orpegen Pharma GmbH, Heidelberg, Germany) following the manufacturers protocol. Briefly, the kit contains cryopreserved, NK-sensitive target cells (K562) labelled with a lipophilic green fluorescent membrane dye, which enables discrimination of effector and target cells. After incubation with effector cells, killed target cells are identified by a DNA-stain, which penetrates and specifically stain the nuclei of dead target cells. This way the percentage of killed targets can be determined by flow cytometry. The mononuclear cells were pre-incubated for 30 min at 37° C. with the indicated peptides (peptides have been described previously) at 10 ug/ml. Target cells were then added, giving an effector:target ratio of 40:1, and the cell mixture incubated at 37° C. for 3-4 hours. Samples were analysed on a FACSCalibur (BD Biosciences, San Jose, Calif.).

PBMC [2] = assay: IL-2 induced proliferation of PBMC in the presence of affinity purified rabbit anti-3028; format: cell-based, human; settings: small amount of peptide 3028 having no inhibitory activity per se
Description: Serum containing culture medium (100 ul/well) was pre-incubated with 20 ug/ml of rabbit antibodies for 30 min at room temperature before the addition of 100 ul PBMC suspension to the culture wells.

PBMC [3] = assay: Human ex vivo model: IL-2 induced proliferation of PBMC in the presence of albumin peptides
PBMC [4] = assay: IL-2 induced proliferation of PBMC with albumin peptides in coated and uncoated tissue culture plates; format: cell-based, human
Description: A mixture of 1 mg/ml IgG in a solution of 9 mg/ml HSA in RPMI (HSA/IgG) was also prepared. 200 μl of HSA or HSA/IgG were then added to each well of the plate. The plates were incubated at 4° C. for 30 minutes after which the wells were washed twice with 200 μl of RPMI1640. The coated plates were used immediately. […] PBMC, isolated from healthy individuals, were diluted in RPMI/2% HSA and peptides were added directly to the cell suspension at a concentration of 10 μg/ml.

CD25, sequence (P01589 22-240 limits assumed): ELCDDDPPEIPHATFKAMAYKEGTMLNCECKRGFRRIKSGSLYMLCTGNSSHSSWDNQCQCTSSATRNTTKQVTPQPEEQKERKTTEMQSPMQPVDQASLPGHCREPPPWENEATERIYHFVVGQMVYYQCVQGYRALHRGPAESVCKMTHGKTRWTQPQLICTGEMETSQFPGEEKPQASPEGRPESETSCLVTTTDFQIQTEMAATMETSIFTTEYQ

- effect on the binding of IL-2 to CD25 (CD25): enhanced
Sequence: VFDEFKPLVEEPQNLIK [peptide 3028]
- effect on dHSA modulated PHA stimulated proliferation (PBMCs): inhibited the stimulatory activity of dHSA
- effect on percent specific lysis of K562 target cells [1]: reduced the percent specific lysis of K562 target cells by all four donors
- effect on the stimulatory effect of anti-3028 antibodies (PBMC [2]): neutralized
- effect on IL-2 induced proliferation (PBMC [3]; cancer patient PBMCs): inhibitory activity
- effect on IL-2 induced proliferation (PBMC [3]; human ex vivo model, PBMCs from healthy controls, peptides 10 μg/ml): regularly inhibits IL-2 induced proliferation
- inhibitory effect on IL-2 induced proliferation under modulation of the Fc-receptor cross-linking (PBMC [4]; HSA/IgG coated plates): completely reversed
- effect on IL-2 induced proliferation (PBMC [4]; PBMC from healthy individuals, peptide 5 μg/ml final, 7 days): highly inhibitory

From patent US9796777B2, “Methods of treating malignant tumors” (Canimguide Therapeutics AB, priority 2007, dated 2017)
